Bounds are passed on as bounds.

The text below walks through data of patent US9914730B2, “Azaquinazoline inhibitors of Atypical protein Kinase C” (Ignyta, Inc., priority 2012, dated 2018).

In the experiment the target is T1, full-length human PKCι (Homo sapiens, UniProt P41743).
T1 construct: Recombinant, full-length human PKCι expressed in Sf21 insect cells is also commercially available; purchased; host or cells: Sf21 insect cells
T1 sequence (P41743 1-596): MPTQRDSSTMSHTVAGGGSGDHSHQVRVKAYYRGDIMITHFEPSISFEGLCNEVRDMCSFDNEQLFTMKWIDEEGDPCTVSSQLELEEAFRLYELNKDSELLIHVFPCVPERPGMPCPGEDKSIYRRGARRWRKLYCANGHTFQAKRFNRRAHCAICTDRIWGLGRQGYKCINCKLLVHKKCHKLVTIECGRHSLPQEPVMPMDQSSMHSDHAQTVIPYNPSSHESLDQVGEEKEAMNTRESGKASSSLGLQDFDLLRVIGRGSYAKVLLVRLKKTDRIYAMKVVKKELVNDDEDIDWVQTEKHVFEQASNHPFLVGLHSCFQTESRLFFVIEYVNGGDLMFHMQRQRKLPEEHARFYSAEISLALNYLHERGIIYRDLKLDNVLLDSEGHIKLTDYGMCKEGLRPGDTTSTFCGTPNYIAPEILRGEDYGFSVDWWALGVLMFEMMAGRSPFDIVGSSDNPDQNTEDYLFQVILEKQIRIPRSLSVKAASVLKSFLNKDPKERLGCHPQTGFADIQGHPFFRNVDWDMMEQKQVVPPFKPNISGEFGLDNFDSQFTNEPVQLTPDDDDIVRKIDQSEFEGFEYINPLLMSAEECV
Nature of the experiment: PKCι IC50 IMAP assay, full-length PKCι at 150 μM ATP. Type of experiment: biochemical. The following applies: read-out: IC50 in IMAP assay against full length PKCi at 150 μM ATP. The source says:
Assays are based on the ability of PKCι to phosphorylate a commercially available peptide substrate in vitro. The peptide substrate is FAM-PKCε pseudopeptide derived peptide, and comprises the amino acid sequence 5FAM-[…]-NH2. Recombinant, full-length human PKCι expressed in Sf21 insect cells is also commercially available. Recombinant, kinase-domain human PKCι is expressed and purified in-house.
The procedure below explains how dose response curves for inhibitors of PKCι are obtained. The screen described is for a 384 well format but the assay can be adapted to 1536 or other formats as required.
Compounds to be tested are dissolved in 100% DMSO. Compounds are diluted as required to give a final concentration of 4% DMSO (v/v) in the assay. 1 μl is plated into 384 well black low-binding flat bottomed assay plates which are used immediately. Dilutions and additions of compound to assay plates are carried out using Matrix WellMate® and Matrix PlateMate® Plus liquid handling systems.
On the day of the screen PKCι/substrate working solution, and ATP working solution, are prepared in buffer containing 20 mM tris-HCl pH7.5, 10 mM MgCl2, 0.01% Triton X100, 250 μM EGTA and 1 mM DTT. The final concentration of PKCι used varies depending on the batch of protein but is typically 15 pM. The final concentration of peptide substrate in the assay is 100 nM. ATP is used at a final concentration of 150 μM or 25 μM in the assays containing full-length or kinase-domain PKCι respectively, which corresponds to five times or equal to the KM^APP for ATP for each enzyme, respectively. The final buffer concentration in the assay is 18 mM tris-HCl pH7.5, 9 mM MgCl2, 0.009% Triton X100, 225 μM EGTA and 0.9 mM DTT. Relevant controls are included, namely no compound and no enzyme. 5 μl PKCι/substrate working solution at 30 pM and 200 nM, respectively, is added to the wells, followed by 4 μl ATP working solution at 375 μM or 62.5 μM for full-length or kinase-domain PKCι respectively, using a 16 channel Matrix pipette. The reaction is allowed to incubate for 60 minutes at room temperature, before the reaction is stopped and developed by the addition of 20 μl IMAP™ development reagent (Molecular Devices). IMAP development reagent consists of 0.25% (v/v) IMAP progressive binding reagent, 17% (v/v) IMAP progressive binding buffer A and 3% (v/v) IMAP progressive binding buffer B. The plates are then incubated for 2 hours at room temperature before being read using an appropriate plate reader, for example a Molecular Devices HT Analyst or a BMG Pherastar. Plates are read using a fluorescence polarisation protocol with excitation at 485 nm and emission at 530 nm, and dichroic mirror at 505 nm.
Percentage inhibition values are calculated from fluorescence polarisation values, using the no compound and no enzyme control values as 0% and 100% inhibition, respectively. IC50 determination is performed with ExcelFit software (IDBS) using curve fit 205. Z′ factors are determined for each plate tested and are all above 0.5.
For the compound “4-{5-(4-Cyano-pyridin-2-ylamino)-2-[2-(4-cyano-pyridin-2-ylamino)-pyridin-4-yl]-pyrido[3,4-d]pyrimidin-4-yl}-piperazine [Example 249]”, the IC50 was less than 100 nM.

Take `COc1cncc2nc(-c3ccncc3)nc(N3CCN[C@@H](C(O)c4ccc(F)cc4)C3)c12` (mixture of isomers) [Example 77, (4-fluorophenyl) [(2R)-4-[5-methoxy-2-(pyridin-4-yl)-pyrido[3,4-d]-pyrimidin-4-yl]-piperazin-2-yl]-methanol]: the IC50 was less than 100 nM. Next, `COc1cncc2nc(-c3ccnc(Nc4ccccc4)c3)nc(N3CC[C@@H](O)[C@H](O)C3)c12` (racemic) [Example 437, (±)-trans-1-[5-Methoxy-2-(2-phenylamino-pyridin-4-yl)-pyrido[3,4-d]pyrimidin-4-yl]-piperidine-3,4-diol]: 100 to 1000 nM. Next, `N#Cc1ccnc(Nc2cc(-c3nc(N4CCC(O)C(O)C4)c4c(C5CC5)cncc4n3)ccn2)c1` (racemic) [Example 485, (±)-2-{4-[5-Cyclopropyl-4-cis-3,4-dihydroxy-piperidin-1-yl)-pyrido[3,4-d]pyrimidin-2-yl]-pyridin-2-ylamino}-isonicotinonitrile]: less than 100 nM; `CN1CCN(c2cccc(Nc3cc(-c4nc(N5CC[C@H](O)[C@H](O)C5)c5c(C6CC6)cncc5n4)ccn3)c2)CC1` (racemic) [Example 602, (+/−)-(cis)-1-(5-Cyclopropyl-2-{2-[3-(4-methyl-piperazin-1-yl)-phenylamino]-pyridin-4-yl}-pyrido[3,4-d]pyrimidin-4-yl)-piperidine-3,4-diol]: less than 100 nM. Regarding `O[C@@H]1CN(c2nc(-c3ccnc(Nc4ccccc4)c3)nc3cncc(C4CC4)c23)CC[C@@H]1O` (racemic) [Example 675, (+/−)-(cis)-1-[5-Cyclopropyl-2-(2-phenylamino-pyridin-4-yl)-pyrido[3,4-d]pyrimidin-4-yl]-piperidine-3,4-diol], the IC50 was 100 to 1000 nM.

For `O[C@@H]1CCN(c2nc(-c3ccnc(Nc4ccccc4)c3)nc3cncc(C4CC4)c23)C[C@H]1O` (racemic) [Example 676, (+/−)-(trans)-1-[5-Cyclopropyl-2-(2-phenylamino-pyridin-4-yl)-pyrido[3,4-d]pyrimidin-4-yl]-piperidine-3,4-diol], the IC50 is 100 to 1000 nM. Next, `N#Cc1ccnc(Nc2cc(-c3nc(N4CC[C@@H](O)[C@H](O)C4)c4c(C5CC5)cncc4n3)ccn2)c1` (racemic) [Example 677, (+/−)-2-{4-[5-Cyclopropyl-4-((trans)-3,4-dihydroxy-piperidin-1-yl)-pyrido[3,4-d]pyrimidin-2-yl]-pyridin-2-ylamino}-isonicotinonitrile]: 100 to 1000 nM; `CN1CCN(c2cccc(Nc3cc(-c4nc(N5CCC(O)C(O)C5)c5c(C6CC6)cncc5n4)ccn3)c2)CC1` (racemic) [Example 678, (+/−)-(trans)-1-(5-Cyclopropyl-2-{2-[3-(4-methyl-piperazin-1-yl)-phenylamino]-pyridin-4-yl}-pyrido[3,4d]pyrimidin-4-yl)-piperidine-3,4-diol]: less than 100 nM. For the compound `c1cc(-c2nc(N3CCNCC3)c3c(C4CC4)cncc3n2)cc(N[C@@H]2C[C@H]3CC[C@@H]2C3)n1` (racemic) [Example 695, (+/−)-(1RS,2RS,4SR)-Bicyclo[2.2.1]hept-2-yl-[4-(5-cyclopropyl-4-piperazin-1-yl-pyrido[3,4-d]pyrimidin-2-yl)-pyridin-2-yl]-amine], the IC50 was less than 100 nM. Next, `O[C@@H]1CN(c2nc(-c3ccnc4[nH]c(C(F)(F)F)cc34)nc3cncc(C4CC4)c23)CC[C@@H]1O` (racemic) [Example 1234, (+/−)-(cis)-1-[5-Cyclopropyl-2-(2-trifluoromethyl-1H-pyrrolo[2,3-b]pyridin-4-yl)-pyrido[3,4-d]pyrimidin-4-yl]-piperidine-3,4-diol]: 100 to 1000 nM.
